The target in this assay is H^+ /K^+ -ATPase (Homo sapiens, UniProt P20648). Nature of the assay: Inhibition of H^+ /K^+ -ATPase (comparison experiment / enzyme test). It counts as biochemical.

We go through 1 compound from patent publication US4818760A, “Derivatives of pyridylsulfinyl(benz-or thieno-)imidazoles and their use as gastric secretion inhibiting substances” (Chemie Linz Aktiengesellschaft, priority 1986, dated 1989).

H^+ /K^+ -ATPase, sequence (P20648 whole entry): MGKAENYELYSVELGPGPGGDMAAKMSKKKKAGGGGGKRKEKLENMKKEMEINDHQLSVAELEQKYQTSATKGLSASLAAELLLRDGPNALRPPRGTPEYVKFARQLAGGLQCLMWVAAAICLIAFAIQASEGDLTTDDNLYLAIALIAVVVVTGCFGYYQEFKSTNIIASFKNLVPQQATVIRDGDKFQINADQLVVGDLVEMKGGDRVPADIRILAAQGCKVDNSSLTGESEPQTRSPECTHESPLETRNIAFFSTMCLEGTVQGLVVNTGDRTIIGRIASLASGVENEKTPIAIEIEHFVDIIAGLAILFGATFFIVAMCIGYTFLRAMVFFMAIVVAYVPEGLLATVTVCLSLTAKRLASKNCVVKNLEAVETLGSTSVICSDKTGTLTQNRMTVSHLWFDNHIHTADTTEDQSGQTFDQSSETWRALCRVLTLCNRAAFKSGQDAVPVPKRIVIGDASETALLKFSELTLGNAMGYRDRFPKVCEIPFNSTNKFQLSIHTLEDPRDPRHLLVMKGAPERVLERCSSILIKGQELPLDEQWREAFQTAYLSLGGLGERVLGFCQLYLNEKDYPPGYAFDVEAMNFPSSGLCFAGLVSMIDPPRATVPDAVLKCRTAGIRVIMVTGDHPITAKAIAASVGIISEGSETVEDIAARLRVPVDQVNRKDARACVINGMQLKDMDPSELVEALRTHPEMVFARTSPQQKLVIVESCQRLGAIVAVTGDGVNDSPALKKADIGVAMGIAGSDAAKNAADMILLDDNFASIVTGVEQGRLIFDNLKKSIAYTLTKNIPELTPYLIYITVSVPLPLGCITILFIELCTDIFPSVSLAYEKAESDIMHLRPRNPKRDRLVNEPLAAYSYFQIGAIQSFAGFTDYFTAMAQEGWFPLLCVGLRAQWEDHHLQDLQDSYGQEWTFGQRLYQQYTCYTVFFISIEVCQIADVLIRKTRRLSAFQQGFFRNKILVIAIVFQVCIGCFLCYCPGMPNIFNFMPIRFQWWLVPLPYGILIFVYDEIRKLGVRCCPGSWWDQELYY
H^+ /K^+ -ATPase, sequence (P51164 whole entry partner): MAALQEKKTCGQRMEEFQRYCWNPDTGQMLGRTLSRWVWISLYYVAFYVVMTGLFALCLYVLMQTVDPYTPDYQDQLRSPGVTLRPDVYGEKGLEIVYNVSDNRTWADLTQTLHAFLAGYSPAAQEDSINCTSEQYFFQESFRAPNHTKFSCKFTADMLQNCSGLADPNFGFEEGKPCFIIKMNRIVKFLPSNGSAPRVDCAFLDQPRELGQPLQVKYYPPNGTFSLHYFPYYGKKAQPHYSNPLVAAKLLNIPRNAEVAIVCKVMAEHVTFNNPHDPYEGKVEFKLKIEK

Turning to `COc1c(C)cnc(C[S+]([O-])c2nc3cc(C4=NCCO4)ccc3[nH]2)c1C` (centres unmarked) [Substance A, 5-(4,5-dihydro-2-oxazolyl)-2-((3,5-dimethyl-4-methoxy-2-pyridyl)methylsulfinyl)-1H-benzimidazole], the midpoint of inhibition, the IC50, lay at 5.3 µM. Moreover, the “inhibition of H^+ /K^+ -ATPase relative to omeprazole” value (comparison with omeprazole) is “approximately five times greater than does omeprazole”.
